Measured values: paper PMC12281424, “A Rac-specific competitive inhibitor of guanine nucleotide binding reduces metastasis in triple-negative breast cancer” (Cell Reports Medicine, 2025)

Key:
White blood cell formula = type: in vivo, mouse
From the text: Data S6. Formule white blood cell (% of leukocytes) in control and A41-treated mice (25
Control (n=5) A41 (n=5) p value

Adrenergic α1B = Adrenergic α1B (Rattus norvegicus, UniProt P15823); assay: Safety screen; type: binding
Description: (§1) Blood cell counts, kinase profiler, safety screen, bacterial cytotoxicity, Ames, micronucleus assays were performed by the company Eurofins (France).

Bradykinin B2 = Bradykinin B2 (Homo sapiens, UniProt P30411); assay: Safety screen; type: binding
Description: (§2) Blood cell counts, kinase profiler, safety screen, bacterial cytotoxicity, Ames, micronucleus assays were performed by the company Eurofins (France). The kinase profiler was performed by the company Eurofins (Discovery, Panlab and Cerep).

Histamine H1 = Histamine H1 (Homo sapiens, UniProt P35367); assay: Safety screen; type: binding
Description: as §2

Sodium Channel, Site 2 = assay: Safety screen; type: binding, rat
Description: as §1

CaMKIß(h) = CaMKIß(h) (Homo sapiens, UniProt Q6P2M8); assay: Kinase Profiler; type: biochemical
Description: as §2

CDK16/cyclinY(h) = CDK16/cyclinY(h) (Homo sapiens, UniProt Q00536); assay: Kinase Profiler; type: biochemical
Description: as §2

CHK2(R145W)(h) = CHK2(R145W)(h) (Homo sapiens, UniProt O96017, R145W); assay: Kinase Profiler; type: biochemical
Description: (§3) The kinase profiler was performed by the company Eurofins (Discovery, Panlab and Cerep).

CK1δ(h) = CK1δ(h) (Homo sapiens, UniProt P48730); assay: Kinase Profiler; type: biochemical
Description: as §3

CLIK1(h) = CLIK1(h) (Homo sapiens, UniProt Q8TDR2); assay: Kinase Profiler; type: biochemical
Description: as §3

cKit(D816H)(h) = cKit(D816H)(h) (Homo sapiens, UniProt P10721, D816H); assay: Kinase Profiler; type: biochemical
Description: as §2

EphA4(h) = EphA4(h) (Homo sapiens, UniProt P54764); assay: Kinase Profiler; type: biochemical
Description: as §2

FGFR2(h) = FGFR2(h) (Homo sapiens, UniProt P21802); assay: Kinase Profiler; type: biochemical
Description: as §3

GRK6(h) = GRK6(h) (Homo sapiens, UniProt P43250); assay: Kinase Profiler; type: biochemical
Description: as §2

Haspin(h) = Haspin(h) (Homo sapiens, UniProt Q8TF76); assay: Kinase Profiler; type: biochemical
Description: as §3

ICK(h) = ICK(h) (Homo sapiens, UniProt Q9UPZ9); assay: Kinase Profiler; type: biochemical
Description: as §3

IKKε(h) = IKKε(h) (Homo sapiens, UniProt Q14164); assay: Kinase Profiler; type: biochemical
Description: as §2

LOK(h) = LOK(h) (Homo sapiens, UniProt O94804); assay: Kinase Profiler; type: biochemical
Description: as §3

MLCK(h) = MLCK(h) (Homo sapiens, UniProt Q15746); assay: Kinase Profiler; type: biochemical
Description: as §2

PAK5(h) = PAK5(h) (Homo sapiens, UniProt Q9P286); assay: Kinase Profiler; type: biochemical
Description: as §3

Pim-2(h) = Pim-2(h) (Homo sapiens, UniProt Q9P1W9); assay: Kinase Profiler; type: biochemical
Description: as §2

PKBα(h) = PKBα(h) (Homo sapiens, UniProt P31749); assay: Kinase Profiler; type: biochemical
Description: as §3

PKCι(h) = PKCι(h) (Homo sapiens, UniProt P41743); assay: Kinase Profiler; type: biochemical
Description: as §3

PKCζ(h) = PKCζ(h) (Homo sapiens, UniProt Q05513); assay: Kinase Profiler; type: biochemical
Description: as §3

PKR(h) = PKR(h) (Homo sapiens, UniProt P19525); assay: Kinase Profiler; type: biochemical
Description: as §3

PRK2(h) = PRK2(h) (Homo sapiens, UniProt Q16513); assay: Kinase Profiler; type: biochemical
Description: as §3

RIPK1(h) = RIPK1(h) (Homo sapiens, UniProt Q13546); assay: Kinase Profiler; type: biochemical
Description: as §3

Ros(h) = Ros(h) (Homo sapiens, UniProt P08922); assay: Kinase Profiler; type: biochemical
Description: as §2

SAPK2a(h) = SAPK2a(h) (Homo sapiens, UniProt Q16539); assay: Kinase Profiler; type: biochemical
Description: as §3

TAO2(h) = TAO2(h) (Homo sapiens, UniProt Q9UL54); assay: Kinase Profiler; type: biochemical
Description: as §2

TLK1(h) = TLK1(h) (Homo sapiens, UniProt Q9UKI8); assay: Kinase Profiler; type: biochemical
Description: as §3

TTBK1(h) = TTBK1(h) (Homo sapiens, UniProt Q5TCY1); assay: Kinase Profiler; type: biochemical
Description: as §3

ULK2(h) = ULK2(h) (Homo sapiens, UniProt Q8IYT8); assay: Kinase Profiler; type: biochemical
Description: as §2

Chain of CLIK1(h) (Q8TDR2 whole entry): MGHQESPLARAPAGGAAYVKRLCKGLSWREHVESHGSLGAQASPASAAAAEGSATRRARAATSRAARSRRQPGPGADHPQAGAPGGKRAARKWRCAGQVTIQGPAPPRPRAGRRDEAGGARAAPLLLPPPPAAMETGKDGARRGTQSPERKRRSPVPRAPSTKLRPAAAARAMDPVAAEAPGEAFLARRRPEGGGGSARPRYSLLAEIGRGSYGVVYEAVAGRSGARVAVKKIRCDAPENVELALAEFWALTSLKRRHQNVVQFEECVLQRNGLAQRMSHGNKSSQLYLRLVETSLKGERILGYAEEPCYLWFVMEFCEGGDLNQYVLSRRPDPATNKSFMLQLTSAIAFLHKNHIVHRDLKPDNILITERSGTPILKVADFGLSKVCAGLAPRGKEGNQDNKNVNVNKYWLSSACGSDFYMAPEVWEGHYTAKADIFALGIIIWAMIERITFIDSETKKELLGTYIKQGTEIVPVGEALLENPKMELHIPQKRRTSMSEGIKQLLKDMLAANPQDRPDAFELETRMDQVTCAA
Chain of Haspin(h) (Q8TF76 whole entry): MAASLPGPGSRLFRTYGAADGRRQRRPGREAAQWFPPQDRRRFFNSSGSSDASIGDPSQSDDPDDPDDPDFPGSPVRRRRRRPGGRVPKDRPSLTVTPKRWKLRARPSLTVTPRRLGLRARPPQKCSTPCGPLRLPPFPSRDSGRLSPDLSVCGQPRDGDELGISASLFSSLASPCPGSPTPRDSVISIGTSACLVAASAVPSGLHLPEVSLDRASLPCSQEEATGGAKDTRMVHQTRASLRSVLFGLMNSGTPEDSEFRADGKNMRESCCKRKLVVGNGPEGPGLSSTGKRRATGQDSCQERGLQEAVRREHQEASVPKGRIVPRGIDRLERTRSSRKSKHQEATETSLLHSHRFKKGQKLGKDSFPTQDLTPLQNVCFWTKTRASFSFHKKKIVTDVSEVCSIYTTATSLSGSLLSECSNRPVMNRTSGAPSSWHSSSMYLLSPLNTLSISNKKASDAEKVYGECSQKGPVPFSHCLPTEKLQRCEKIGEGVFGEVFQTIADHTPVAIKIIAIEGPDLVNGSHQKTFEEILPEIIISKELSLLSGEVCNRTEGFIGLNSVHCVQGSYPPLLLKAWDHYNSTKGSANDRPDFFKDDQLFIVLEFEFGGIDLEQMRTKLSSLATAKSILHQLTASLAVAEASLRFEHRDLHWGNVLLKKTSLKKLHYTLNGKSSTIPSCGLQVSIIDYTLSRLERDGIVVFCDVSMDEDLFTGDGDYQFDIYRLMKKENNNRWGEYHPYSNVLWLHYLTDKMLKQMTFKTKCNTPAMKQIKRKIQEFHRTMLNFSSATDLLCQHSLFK
Chain of PRK2(h) (Q16513 whole entry): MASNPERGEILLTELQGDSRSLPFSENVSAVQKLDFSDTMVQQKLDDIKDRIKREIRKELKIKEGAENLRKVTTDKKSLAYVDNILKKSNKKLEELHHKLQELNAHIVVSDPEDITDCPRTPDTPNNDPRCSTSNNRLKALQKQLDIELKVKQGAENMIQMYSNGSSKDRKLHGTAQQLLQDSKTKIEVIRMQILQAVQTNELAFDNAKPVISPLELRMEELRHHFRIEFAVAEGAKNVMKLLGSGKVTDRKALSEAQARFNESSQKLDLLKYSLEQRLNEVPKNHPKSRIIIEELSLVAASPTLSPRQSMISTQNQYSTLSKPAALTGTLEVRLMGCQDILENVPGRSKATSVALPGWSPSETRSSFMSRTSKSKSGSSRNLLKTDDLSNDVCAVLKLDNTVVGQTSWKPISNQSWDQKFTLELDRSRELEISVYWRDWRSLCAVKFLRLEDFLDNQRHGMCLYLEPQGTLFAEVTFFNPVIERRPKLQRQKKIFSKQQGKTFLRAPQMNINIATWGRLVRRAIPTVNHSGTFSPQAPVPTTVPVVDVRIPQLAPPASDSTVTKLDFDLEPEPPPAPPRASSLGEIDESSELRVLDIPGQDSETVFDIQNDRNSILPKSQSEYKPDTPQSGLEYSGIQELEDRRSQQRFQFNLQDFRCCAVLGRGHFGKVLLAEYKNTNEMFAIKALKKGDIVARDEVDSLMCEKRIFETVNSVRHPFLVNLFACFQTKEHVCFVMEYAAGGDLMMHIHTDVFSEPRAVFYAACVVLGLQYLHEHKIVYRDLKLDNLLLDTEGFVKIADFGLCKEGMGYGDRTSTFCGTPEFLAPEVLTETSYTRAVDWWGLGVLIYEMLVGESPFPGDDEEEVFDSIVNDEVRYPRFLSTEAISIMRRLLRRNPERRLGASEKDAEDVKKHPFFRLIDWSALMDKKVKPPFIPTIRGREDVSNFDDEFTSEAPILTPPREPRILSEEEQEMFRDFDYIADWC
Chain of Pim-2(h) (Q9P1W9 whole entry): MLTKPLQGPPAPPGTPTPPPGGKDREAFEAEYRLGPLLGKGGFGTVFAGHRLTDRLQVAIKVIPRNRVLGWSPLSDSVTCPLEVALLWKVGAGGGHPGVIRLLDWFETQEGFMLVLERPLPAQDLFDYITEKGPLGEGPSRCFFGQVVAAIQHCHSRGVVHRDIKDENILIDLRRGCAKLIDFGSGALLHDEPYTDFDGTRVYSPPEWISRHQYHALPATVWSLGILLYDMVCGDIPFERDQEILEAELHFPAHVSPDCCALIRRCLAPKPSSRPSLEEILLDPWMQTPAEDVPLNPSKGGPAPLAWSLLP
Chain of PKR(h) (P19525 whole entry): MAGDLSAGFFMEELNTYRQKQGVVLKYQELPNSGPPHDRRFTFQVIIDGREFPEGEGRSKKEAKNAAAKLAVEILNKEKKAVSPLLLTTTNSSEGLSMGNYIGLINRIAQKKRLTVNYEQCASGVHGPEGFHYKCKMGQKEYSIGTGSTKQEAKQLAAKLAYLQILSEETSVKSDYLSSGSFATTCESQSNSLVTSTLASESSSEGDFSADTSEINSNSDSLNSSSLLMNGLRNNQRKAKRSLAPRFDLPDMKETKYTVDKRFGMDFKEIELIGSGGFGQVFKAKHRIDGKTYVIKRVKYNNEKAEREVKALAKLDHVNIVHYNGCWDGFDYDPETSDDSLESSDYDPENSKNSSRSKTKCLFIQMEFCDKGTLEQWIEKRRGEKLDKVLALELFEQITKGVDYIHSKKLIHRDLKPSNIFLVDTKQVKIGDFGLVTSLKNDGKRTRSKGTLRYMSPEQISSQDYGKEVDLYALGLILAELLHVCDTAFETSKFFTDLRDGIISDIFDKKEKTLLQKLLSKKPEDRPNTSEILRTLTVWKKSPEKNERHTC
Chain of CaMKIß(h) (Q6P2M8 whole entry): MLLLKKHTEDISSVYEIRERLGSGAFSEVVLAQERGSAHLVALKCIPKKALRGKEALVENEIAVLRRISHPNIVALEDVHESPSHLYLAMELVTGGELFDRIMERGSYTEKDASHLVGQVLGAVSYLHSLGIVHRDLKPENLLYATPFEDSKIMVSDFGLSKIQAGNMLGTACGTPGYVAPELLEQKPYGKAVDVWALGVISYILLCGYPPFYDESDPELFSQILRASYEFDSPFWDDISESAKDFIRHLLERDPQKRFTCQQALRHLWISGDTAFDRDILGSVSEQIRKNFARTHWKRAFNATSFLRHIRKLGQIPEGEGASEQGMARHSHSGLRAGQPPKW
Chain of RIPK1(h) (Q13546 whole entry): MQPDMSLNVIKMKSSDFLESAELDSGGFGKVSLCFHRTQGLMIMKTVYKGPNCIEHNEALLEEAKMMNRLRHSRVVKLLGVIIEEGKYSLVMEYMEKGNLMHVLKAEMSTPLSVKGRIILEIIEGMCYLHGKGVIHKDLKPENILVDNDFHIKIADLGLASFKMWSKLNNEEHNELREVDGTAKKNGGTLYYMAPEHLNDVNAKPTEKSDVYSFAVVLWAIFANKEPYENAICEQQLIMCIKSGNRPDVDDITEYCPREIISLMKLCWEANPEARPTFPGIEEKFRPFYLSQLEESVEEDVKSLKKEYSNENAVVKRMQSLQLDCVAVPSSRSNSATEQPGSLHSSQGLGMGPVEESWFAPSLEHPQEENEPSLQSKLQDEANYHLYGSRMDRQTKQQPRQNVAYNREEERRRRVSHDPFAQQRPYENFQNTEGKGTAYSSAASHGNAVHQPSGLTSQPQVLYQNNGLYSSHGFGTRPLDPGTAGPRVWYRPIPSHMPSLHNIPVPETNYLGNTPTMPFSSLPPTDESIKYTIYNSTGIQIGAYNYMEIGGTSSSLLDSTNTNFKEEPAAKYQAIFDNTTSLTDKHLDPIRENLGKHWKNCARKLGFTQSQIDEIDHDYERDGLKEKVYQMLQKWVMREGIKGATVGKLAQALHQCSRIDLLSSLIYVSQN
Chain of SAPK2a(h) (Q16539 whole entry): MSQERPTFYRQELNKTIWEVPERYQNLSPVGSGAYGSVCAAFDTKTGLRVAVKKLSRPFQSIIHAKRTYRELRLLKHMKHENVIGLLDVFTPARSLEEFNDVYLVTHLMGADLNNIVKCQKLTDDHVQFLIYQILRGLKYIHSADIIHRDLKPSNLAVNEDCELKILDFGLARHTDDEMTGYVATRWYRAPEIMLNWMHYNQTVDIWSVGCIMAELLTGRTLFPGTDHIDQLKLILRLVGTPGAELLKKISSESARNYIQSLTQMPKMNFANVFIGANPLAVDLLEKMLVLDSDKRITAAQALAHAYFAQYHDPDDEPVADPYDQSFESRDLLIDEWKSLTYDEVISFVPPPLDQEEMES
Chain of Bradykinin B2 (P30411 whole entry): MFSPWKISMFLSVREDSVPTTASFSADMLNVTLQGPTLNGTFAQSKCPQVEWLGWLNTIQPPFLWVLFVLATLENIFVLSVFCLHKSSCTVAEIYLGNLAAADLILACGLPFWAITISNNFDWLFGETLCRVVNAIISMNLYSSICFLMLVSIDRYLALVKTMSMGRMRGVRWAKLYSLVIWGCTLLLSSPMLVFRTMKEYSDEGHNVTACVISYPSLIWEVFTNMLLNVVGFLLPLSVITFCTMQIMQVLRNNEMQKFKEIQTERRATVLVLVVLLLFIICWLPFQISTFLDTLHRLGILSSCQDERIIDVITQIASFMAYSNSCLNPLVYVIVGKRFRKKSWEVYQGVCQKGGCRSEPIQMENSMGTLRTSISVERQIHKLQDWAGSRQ

SMILES: COc1ccc(OC)c(NS(=O)(=O)c2ccc(NC(=O)CCSc3ccc(C)cc3)cc2)c1 [Compound A41]
- B cells, Mean (SD) (White blood cell formula; 25 mg/kg/d, n=5): 11.62 (1.58) % of leukocytes
- Macrophages, Mean (SD) (White blood cell formula; 25 mg/kg/d, n=5): 2.46 (2.34) % of leukocytes
- Monocytes, Mean (SD) (White blood cell formula; 25 mg/kg/d, n=5): 0.86 (0.57) % of leukocytes
- NK cells, Mean (SD) (White blood cell formula; 25 mg/kg/d, n=5): 0.40 (0.22) % of leukocytes
- Neutrophiles, Mean (SD) (White blood cell formula; 25 mg/kg/d, n=5): 4.19 (6.24) % of leukocytes
- T cells, Mean (SD) (White blood cell formula; 25 mg/kg/d, n=5): 52.20 (2.11) % of leukocytes
- white cell blood counts (White blood cell formula; chronic A41 treatment, immunocompetent mice): not accompanied by changes in white cell blood counts
- % inh. (Adrenergic α1B): 41%
- % inh. (Bradykinin B2): 1%
- % inh. (Histamine H1): 41%
- % inh. (Sodium Channel, Site 2): 57%
- Activity(%) (CaMKIß(h)): 114%
- Activity(%) (CDK16/cyclinY(h)): 107%
- Activity(%) (CHK2(R145W)(h)): 92%
- Activity(%) (CK1δ(h)): 96%
- Activity(%) (CLIK1(h)): 112%
- Activity(%) (cKit(D816H)(h)): 109%
- Activity(%) (EphA4(h)): 111%
- Activity(%) (FGFR2(h)): 89%
- Activity(%) (GRK6(h)): 100%
- Activity(%) (Haspin(h)): 116%
- Activity(%) (ICK(h)): 77%
- Activity(%) (IKKε(h)): 106%
- Activity(%) (LOK(h)): 112%
- Activity(%) (MLCK(h)): 103%
- Activity(%) (PAK5(h)): 105%
- Activity(%) (Pim-2(h)): 110%
- Activity(%) (PKBα(h)): 108%
- Activity(%) (PKCι(h)): 93%
- Activity(%) (PKCζ(h)): 97%
- Activity(%) (PKR(h)): 101%
- Activity(%) (PRK2(h)): 110%
- Activity(%) (RIPK1(h)): 98%
- Activity(%) (Ros(h)): 139%
- Activity(%) (SAPK2a(h)): 100%
- Activity(%) (TAO2(h)): 108%
- Activity(%) (TLK1(h)): 102%
- Activity(%) (TTBK1(h)): 103%
- Activity(%) (ULK2(h)): 99%
